{"source": "patent US12246009B2", "about": "“Compositions and methods for treating neurodegenerative, myodegenerative, and lysosomal storage disorders” (GEORGETOWN UNIVERSITY, priority 2018, dated 2025)", "key": {"[1]": {"tested_on": "APP mice", "assay": "Morris Water Maze test in APP mice", "assay_type": "in vivo, mouse", "conditions": "1.25 mg/kg, trend, no significant difference between groups"}, "[2]": {"molecular_target": "T1, Ab1 (Mus musculus, UniProt P00520)", "T1 construct": "Brains from treated mice compared with DMSO treated mice were homogenized in STEN lysis buffer; from tissue; host or cells: brain of rTg4510 or TgAPP mice", "assay": "Activated Ab1 immunoblot in rTG4510 mice", "assay_type": "in vivo", "conditions": "rTG4510 mice, 1.25, 2.5 or 5 mg/kg i.p., 7 days"}, "[3]": {"tested_on": "human phosphorylated tau (Ser396)", "assay": "Human phosphorylated tau (Ser396) ELISA in transgenic APP mice", "assay_type": "in vivo, mouse", "conditions": "2.5 mg/kg i.p., 21 days"}, "[4]": {"tested_on": "human alpha-synuclein", "assay": "Human alpha-synuclein ELISA and immunoblot in A53T mice", "assay_type": "in vivo, mouse", "conditions": "2.5 mg/kg i.p.; for alpha-synuclein level in A53T mice: vs DMSO"}, "[5]": {"molecular_target": "T2, DDR1 (Mus musculus, UniProt Q03146)", "T2 construct": "Brains were collected and homogenized in 1.0 ml 1× STEN buffer; from tissue; host or cells: brain of rTg4510 or TgAPP mice", "T2 sequence (Q03146 20-911)": "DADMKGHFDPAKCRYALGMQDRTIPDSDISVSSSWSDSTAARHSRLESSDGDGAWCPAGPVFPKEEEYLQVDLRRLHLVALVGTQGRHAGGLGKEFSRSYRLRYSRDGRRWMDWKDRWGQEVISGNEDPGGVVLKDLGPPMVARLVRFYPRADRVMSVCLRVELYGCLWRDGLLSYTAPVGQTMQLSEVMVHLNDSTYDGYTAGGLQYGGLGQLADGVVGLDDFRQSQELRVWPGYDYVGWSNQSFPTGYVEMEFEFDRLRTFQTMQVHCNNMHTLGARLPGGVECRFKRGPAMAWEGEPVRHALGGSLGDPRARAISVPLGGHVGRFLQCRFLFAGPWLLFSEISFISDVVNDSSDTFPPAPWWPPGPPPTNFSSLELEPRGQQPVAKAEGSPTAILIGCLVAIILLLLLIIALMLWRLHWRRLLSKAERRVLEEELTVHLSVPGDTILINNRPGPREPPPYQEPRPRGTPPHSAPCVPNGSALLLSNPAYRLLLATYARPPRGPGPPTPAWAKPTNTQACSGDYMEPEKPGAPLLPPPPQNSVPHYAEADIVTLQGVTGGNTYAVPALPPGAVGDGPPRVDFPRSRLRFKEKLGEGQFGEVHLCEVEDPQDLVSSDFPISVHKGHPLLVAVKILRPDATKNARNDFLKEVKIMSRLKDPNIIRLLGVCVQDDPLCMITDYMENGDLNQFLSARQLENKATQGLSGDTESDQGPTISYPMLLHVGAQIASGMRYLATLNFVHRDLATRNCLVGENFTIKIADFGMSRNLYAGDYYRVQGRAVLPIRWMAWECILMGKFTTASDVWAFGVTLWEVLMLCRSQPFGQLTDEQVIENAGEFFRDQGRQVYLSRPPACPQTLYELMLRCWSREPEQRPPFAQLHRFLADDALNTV", "assay": "Phosphorylated (active) DDR1 (pMCK10) immunoblot in rTG4510 mice", "assay_type": "in vivo", "conditions": "for phosphorylated (active) DDR1 (pMCK10), immunoblot: 1.25 mg/kg or 2.5 mg/kg i.p."}, "[6]": {"tested_on": "hippocampus of APP mice", "assay": "Nissl staining of hippocampal sections of APP mice (cell death)", "conditions": "1.25 mg/kg and 2.5 mg/kg"}, "[7]": {"tested_on": "pTau (231) (AT180)", "assay": "pTau (231) (AT180) Western blot in rTG4510 transgenic mice", "assay_type": "in vivo, mouse", "conditions": "1.25 mg/kg, 2.5 mg/kg or 5.0 mg/kg"}, "[8]": {"tested_on": "B35 cells", "assay": "MTT assay, cell viability", "assay_type": "cell-based, rat", "conditions": "1 μM, 16 hours of treatment, compared to control", "protocol": "Rat neuroblastoma B35 cells were grown in Dulbecco's Modified Eagle's Medium (DMEM) with 10% Fetal Bovine Serum (FBS) and 1% penicillin/streptomycin and incubated at 37° C. with 5% CO2. For the experiments, cells were transferred to 12-well plates (Cat. #150628, ThermoFisher, Waltham, MA) and grown to at least 70% confluence. Transient transfection was performed with 3 μg P301 L tau (Cat. #30145, Addgene) cDNA or 3 μg human α-synuclein cDNA using Fugene HD transfection reagent (Cat. #E2311, Promega, Madison WI) for 24 hours. Cells were treated with 1 mM, 100 μM, 10 μM, 1 μM, 0.1 μM, 0.01 μM, and 0.001 μM dissolved in DMSO or an equivalent 5 ul of DMSO for 5 hours. Cell culture media was collected and cells were harvested using sodium-tris, EDTA, NP-40 (STEN) buffer and centrifuged at 10,000×g for 20 minutes at 4′C and supernatant was collected. Cell viability was determined via lactate dehydrogenase assay (Cat. #88954, Thermofisher) and MTT assay (Cat. #V13154, Thermofisher). […]\nTo measure cell viability, cells were incubated with 500 μL of Dulbecco's Modified Eagle's Medium (DMEM) containing 50 μL of (3-[4,5-dimethylthiazol-2-yl]-2,5-diphenyl-tetrazolium bromide (MTT)) for 4 hours at 37° C. and 5% CO2. […] Absorbance was read against a blank containing 125 uL of media and MTT, and 250 uL of DMS at 570 nm."}, "[9]": {"tested_on": "A53T mice", "assay": "Open field test in A53T mice", "assay_type": "in vivo, mouse", "conditions": "60-minute trial"}, "[10]": {"tested_on": "amyloid-beta (6E10)", "assay": "Amyloid-beta (6E10) immunoblot in transgenic APP mice", "assay_type": "in vivo, mouse", "conditions": "1.25 and 2.5 mg/kg i.p., 21 consecutive days"}, "[11]": {"tested_on": "dopamine", "assay": "Dopamine and homovanillic acid (HVA) levels in A53T mice", "assay_type": "in vivo, mouse", "conditions": "2.5 mg/kg i.p., 21 days"}}, "note": "“Also recorded” adds a separate entry of the source."}
{"smiles": "Cc1cccc(-c2cc3nccc(Nc4ccccc4)c3s2)c1", "note": "[BK40143, N-Phenyl-2-(m-tolyl)thieno[3,2-b]pyridin-7-amine]", "values": [{"measurement": "distance travelled before first entry to the platform, Morris Water Maze", "setting": "[1]", "result": "lower distance travelled before the first entry"}, {"measurement": "latency to the first entry, Morris Water Maze", "setting": "[1]", "result": "lower latency to first entry"}, {"measurement": "number of platform entries, Morris Water Maze", "setting": "[1]", "result": "higher numbers of platform entries"}, {"measurement": "activated Ab1, immunoblot", "setting": "[2]", "result": "did not engage"}, {"measurement": "activated Ab1, immunoblot", "setting": "[2]; listed as BK-40143", "result": "does not engage"}, {"measurement": "reduction of human phosphorylated tau (Ser396)", "setting": "[3]", "result": "over 80%"}, {"measurement": "reduction in the level of human alpha-synuclein, ELISA", "setting": "[4]; 21 consecutive days, vs DMSO treated A53T mice", "result": 39, "unit": "%"}, {"measurement": "alpha-synuclein level in A53T mice", "setting": "[4]; 21 consecutive days, 2.5 mg/kg", "result": "significantly reduces"}, {"measurement": "alpha-synuclein level in A53T mice", "setting": "[4]; 21 consecutive days, listed as BK-40143, 2.5 mg/kg", "result": "significantly decreased"}, {"measurement": "reduction in alpha-synuclein, immunoblots", "setting": "[4]; 21 days, immunoblots mirrored the ELISA", "result": 40, "unit": "%"}, {"measurement": "phosphorylated (active) DDR1 (pMCK10), immunoblot", "setting": "[5]; rTG4510 mice, 7 days", "result": "deactivated DDR; also recorded: deactivated DDR1"}, {"measurement": "phosphorylated (active) DDR1 (pMCK10), immunoblot", "setting": "[5]; rTG4510 mice, 7 days, listed as BK-40143", "result": "in vivo inhibition of DDR1"}, {"measurement": "deactivation of DDR1 (phosphorylated DDR1 immunoblot)", "setting": "[5]; rTG4510 mice, 5 mg/kg i.p., 7 days", "result": "not"}, {"measurement": "deactivation of DDRs", "setting": "[5]; rTG4510 tauopathy mouse model, i.p., 7 consecutive days", "result": "about 50%"}, {"measurement": "cell death in the hippocampus (Nissl staining intensity)", "setting": "[6]", "result": "does not cause cell death"}, {"measurement": "levels of pTau (231) (AT180), Western blot", "setting": "[7]", "result": "did not affect"}, {"measurement": "MTT, neuroprotective effect", "setting": "[8]", "result": "increase"}, {"measurement": "total distance travelled, open field", "setting": "[9]", "result": "did not show any difference"}, {"measurement": "total time spent moving, open field", "setting": "[9]", "result": "did not show any difference"}, {"measurement": "velocity of movements, open field", "setting": "[9]", "result": "significantly increased"}, {"measurement": "aggregating extracellular amyloid-beta (6E10), immunoblot", "setting": "[10]", "result": "significantly reduced amyloid-beta plaques"}, {"measurement": "level of the dopamine metabolite homovanillic acid (HVA)", "setting": "[11]", "result": "increase"}, {"measurement": "increase of overall level of dopamine", "setting": "[11]; 2.5 mg/kg", "result": 30, "unit": "%"}, {"measurement": "increase of overall level of dopamine", "setting": "[11]; listed as BK-40143, 2.5 mg/kg", "result": "about 30%"}]}
